Source: patent publication US20080176952A1, “Management of Ophthalmologic Disorders, Including Macular Degeneration” (priority 2004, published 2008)

Key:
RPE65 = target: T1, RPE65 (Bos taurus, UniProt Q28175); assay: Fluorescence binding assay of retinoids and analogs to purified RPE65; set-up: species or system bovine; conditions: antagonist of RPE65; read-out: KD
T1 construct: Frozen bovine eyecups devoid of retinas were purchased from W. L. Lawson Co; tissue W. L. Lawson Co; host or cells: bovine eyecups (retinal pigment epithelium)
Experimental: Purification of mRPE65, sRPE65 and rHRPE65: Purification was performed as described before (Ma et al., 2001). The purities of these proteins were verified by silver staining or Coomassie staining and Western blot (1:4000 primary antibody-1 h at room temperature and 1:4000 secondary antibody-0.5 h at room temperature).
(§1) Fluorescence binding assays: RPE65 in PBS, 1% CHAPS, pH 7.4 was used in the fluorometric titration studies. Protein concentrations were measured by a modified Lowry method (Lowry et al., 1951). All titrations were performed at 25° C. The samples in PBS buffer were excited at 280 nm and the fluorescence was scanned from 300 to 500 nm. Fluorescence measurements, using 450 μL quartz cuvettes with a 0.5 cm path length, were made at 25° C. on a Jobin Yvon Instruments, Fluoromax 2 employing the right-angle detection method.
(§2) The fluorescence of the protein solution was measured after equilibrating it at 25° C. for 10 min. The sample was then titrated with a solution of retinoid dissolved in dimethyl sulfoxide. In each titration, to a 250 μL solution of the protein an equal amount of retinoid, typically 0.2 μL. was added and thoroughly mixed before allowing it to equilibrate for 10 min prior to recording the fluorescence intensity. […] The binding constant (KD) was calculated from the fluorescence intensity by using the following equation (Gollapalli et al., 2003).
where P0=Total protein concentration,
n=number of independent binding sites, R0=Total retixioid concentration at each addition, KD=dissociation constant, Fmax=Fluorescence intensity at saturation, and F0=Initial fluorescence intensity.

A2E formation = assay: In vitro A2E formation in the presence of aromatic amine
Experimental: 100 mg (355 μmoles) of all-trans-retinal was dissolved in 3 mL followed by the addition of 9.5 μL of glacial acetic acid 9.5 μL of ethanolamine (155 μmoles). This solution was aliquoted into 300 μL fractions. 3-aminoethylbenzoate (15.5 μmoles) was added to the samples at 0, 2, 3.75, 14, 16.25, 18.0833 19.917 23.75 and 48 hrs. […] The solutions were shaken at room temperature for 48 hrs. The solutions were then kept at −80° C. and 15 μL was diluted to 250 μL (methanol). The solutions (15 μL) were then analyzed on a reverse phase (C18-5 μm-4.6 mm×150 mm) column on a linear gradient 85%-96% methanol/water and UV detector at 430 nm to determine the amount of A2E formation. The percent A2E formation was compared to A2E formation at 48 h in the absence of aromatic amine.

mouse RPE65 = assay: Constants of affinity (Kds) for mouse RPE65; format: binding; conditions: read-out: Kd (constant of affinity) for mouse RPE65
Experimental: as §1, §2
The constants of affinity (Kds) of several compounds for mouse RPE65 were determined. […] Thus, the potency of binding is a function of the ester chain length, i.e., the longer the chain length, the stronger the affinity for RPE65 is and the stronger the antagonist is.

A2E accumulation = assay: In vivo A2E accumulation in abcr knockout mice; conditions: for A2E accumulation / iso-A2E accumulation / total (A2E + iso-A2E) accumulation: 50 mg/kg once or twice a week, 2 to 2½ months; for reduction of A2E accumulation / reduction of iso-A2E accumulation / reduction of total A2E accumulation: versus no drug
Experimental: Effects on accumulation of A2E in abcr knockout mice by farnesyl decyl ketone and N-palmityl farnesimide were investigated. Mice were injected with 50 mg/kg drug in 25 microliters of DMSO or with only DMSO for the control group once or twice a week. After 2 to 2½ months, the mice were sacrificed, and A2E and iso-A2E were harvested and quantitated from 4 eyes for each drug or control.

T1 sequence (Q28175 whole entry): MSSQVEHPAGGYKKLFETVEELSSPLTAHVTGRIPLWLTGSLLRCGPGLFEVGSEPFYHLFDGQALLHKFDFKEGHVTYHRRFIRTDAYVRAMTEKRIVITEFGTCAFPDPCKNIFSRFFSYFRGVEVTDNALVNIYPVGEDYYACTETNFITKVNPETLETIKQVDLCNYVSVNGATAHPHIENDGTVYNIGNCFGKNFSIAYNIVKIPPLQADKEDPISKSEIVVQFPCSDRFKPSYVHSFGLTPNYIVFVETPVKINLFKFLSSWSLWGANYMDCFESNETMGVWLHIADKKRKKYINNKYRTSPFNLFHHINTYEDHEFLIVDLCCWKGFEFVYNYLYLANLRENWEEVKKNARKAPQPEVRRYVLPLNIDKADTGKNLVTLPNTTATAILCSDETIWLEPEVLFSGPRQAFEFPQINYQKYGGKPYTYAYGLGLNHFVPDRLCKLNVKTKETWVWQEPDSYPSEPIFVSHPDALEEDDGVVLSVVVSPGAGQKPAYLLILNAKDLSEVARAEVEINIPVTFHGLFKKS

Compound	Kd (RPE65)	other results
CCCCCCCCCCCCCCCC(=O)CC/C=C(\C)CC/C=C(\C)CCC=C(C)C	0.096 µM	
CCCCCCCCCC(=O)CC/C=C(\C)CC/C=C(\C)CCC=C(C)C	0.056 µM	
CCCCCCCCCCCCCCCC(=O)NC/C=C(\C)CC/C=C(\C)CCC=C(C)C	0.056 µM	
CCCCCCCCCC(=O)CC/C=C(C)/C=C/C=C(C)/C=C/C1=C(C)CCCC1(C)C	0.173 µM	
CC(=O)CC/C=C(C)/C=C/C=C(C)/C=C/C1=C(C)CCCC1(C)C	3.79 µM	
CCOC(=O)c1cccc(N)c1 [3-aminoethylbenzoate, ethyl 3-aminobenzoate]		A2E formation % formation (48 Hrs = 100) (A2E formation; aromatic amine added at 0 hrs, read at 48 hrs): 3.98%; A2E formation % formation (48 Hrs = 100) (A2E formation; aromatic amine added at 2 hrs, read at 48 hrs): 8.67%; A2E formation % formation (48 Hrs = 100) (A2E formation; aromatic amine added at 3.75 hrs, read at 48 hrs): 7.71%; A2E formation % formation (48 Hrs = 100) (A2E formation; aromatic amine added at 14 hrs, read at 48 hrs): 19.73%; A2E formation % formation (48 Hrs = 100) (A2E formation; aromatic amine added at 16.25 hrs, read at 48 hrs): 19.25%; A2E formation % formation (48 Hrs = 100) (A2E formation; aromatic amine added at 18.0833 hrs, read at 48 hrs): 23.70%; A2E formation % formation (48 Hrs = 100) (A2E formation; aromatic amine added at 19.91667 hrs, read at 48 hrs): 27.65%; A2E formation % formation (48 Hrs = 100) (A2E formation; aromatic amine added at 23.75 hrs, read at 48 hrs): 22.44%; A2E formation % formation (48 Hrs = 100) (A2E formation; aromatic amine added at 48 hrs, reference = 100): 100.00%
CCCCCCCCCCCCCCCC(=O)NC/C=C(C)/C=C/C=C(C)/C=C/C1=C(C)CCCC1(C)C [4e]		Kd (mouse RPE65): 0.04 µM
CCCCCCCCCCCCCCCC(=O)CC/C=C(C)/C=C/C=C(C)/C=C/C1=C(C)CCCC1(C)C [4f]	0.064 µM	Kd (mouse RPE65): 0.064 µM
CC1=C(/C=C/C(C)=C/C=C/C(C)=C/C(=O)N(C)C)C(C)(C)CCC1 [N,N-dimethyl retinimide]	3.58 µM	
CCCCCCCCCCCCCCCCNC(=O)C/C=C(\C)CC/C=C(\C)CCC=C(C)C [N-palmityl farnesimide]		A2E accumulation (A2E accumulation): 5.38 pmoles/eye; iso-A2E accumulation (A2E accumulation): 1.70 pmoles/eye; total (A2E + iso-A2E) accumulation (A2E accumulation): 7.09 pmoles/eye; reduction of A2E accumulation (A2E accumulation): over 50%; reduction of iso-A2E accumulation (A2E accumulation): about 33%; reduction of total A2E accumulation (A2E accumulation): about 47%
CCCCCCCCCCCCCCCCNC(=O)/C=C(C)/C=C/C=C(C)/C=C/C1=C(C)CCCC1(C)C [N-palmityl retinimide]	0.04 µM	
CC1=C(/C=C/C(C)=C/C=C/C(C)=C/C(=O)NC(C)(C)C)C(C)(C)CCC1 [N-tert-butyl retinimide]	4.32 µM	
CCCCCCCCCCC(=O)CC=C(C)CCC=C(C)CCC=C(C)C [farnesyl decyl ketone]		A2E accumulation (A2E accumulation): 2.00 pmoles/eye; iso-A2E accumulation (A2E accumulation): 0.66 pmoles/eye; total (A2E + iso-A2E) accumulation (A2E accumulation): 2.66 pmoles/eye; reduction of A2E accumulation (A2E accumulation): over 80%; reduction of iso-A2E accumulation (A2E accumulation): about 74%; reduction of total A2E accumulation (A2E accumulation): about 80%
CCCCCCCCCCCCCCCC(=O)OC/C=C(\C)CC/C=C(\C)CCC=C(C)C [farnesyl palmitate]	0.063 µM	
CCCCCCCCCCCCCCCCOC/C=C(\C)CC/C=C(\C)CCC=C(C)C [farnesyl palmityl ether]	0.06 µM	
CCCCCCCCCCCCCCCC(=O)OC/C=C(\C)CCC=C(C)C [geranyl palmitate]	0.301 µM	
CCCCCCCCCCCCCCCCOC/C=C(\C)CCC=C(C)C [geranyl palmityl ether]	0.416 µM	
CCCCCCCCCCCCCCCC(=O)OC/C=C(\C)CC/C=C(\C)CC/C=C(\C)CCC=C(C)C [geranylgeranyl palmitate]	0.213 µM	
CCCCCCCCCCCCCCCCOC/C=C(\C)CC/C=C(\C)CC/C=C(\C)CCC=C(C)C [geranylgeranyl palmityl ether]	0.195 µM	
CCCCCCOC/C=C(C)/C=C/C=C(C)/C=C/C1=C(C)CCCC1(C)C [hexyl retinyl ether]	0.151 µM	
COC/C=C(C)/C=C/C=C(C)/C=C/C1=C(C)CCCC1(C)C [methyl retinyl ether]	0.024 µM	
CC(=O)/C=C(C)/C=C/C=C(C)/C=C/C1=C(C)CCCC1(C)C [methyl retinyl ketone]	3.79 µM	
CCCCCCCCCCCCCCCCC(O)/C=C(C)/C=C/C=C(C)/C=C/C1=C(C)CCCC1(C)C (stereo not shown) [palmityl retinyl alcohol]	0.17 µM	
CCCCCCCCCCCCCCCCOC/C=C(C)/C=C/C=C(C)/C=C/C1=C(C)CCCC1(C)C [palmityl retinyl ether]	0.025 µM	Kd (mouse RPE65): 0.021 µM
CCCCCCCCCCCCCCCCC(=O)/C=C(C)/C=C/C=C(C)/C=C/C1=C(C)CCCC1(C)C [palmityl retinyl ketone]	0.064 µM	
COCCOCCOC/C=C(C)/C=C/C=C(C)/C=C/C1=C(C)CCCC1(C)C [retinyl [2-(2′-methoxy)ethoxy]ethyl ether]	0.486 µM	
CC(=O)OC/C=C(C)/C=C/C=C(C)/C=C/C1=C(C)CCCC1(C)C [retinyl acetate]	1.3 µM	Kd (mouse RPE65): 1.3 µM
CCCCCCCCCCCCCCCC(=O)OC/C=C(C)/C=C/C1=C(C)CCCC1(C)C [β-ionoacetyl palmitate]	0.153 µM	
CCCCCCCCCCCCCCCCOC/C=C(C)/C=C/C1=C(C)CCCC1(C)C [β-ionoacetyl palmityl ether]	0.156 µM	
retinyl hexanoate	0.235 µM	Kd (mouse RPE65): 0.235 µM
